Measurements from patent US20240398817A1, “CARDIO- AND RENOSAFE ANTIDIABETIC THERAPY” (priority 2018, published 2024).

Tested on: patients with type 2 diabetes at high vascular risk
Test: Cardiovascular and Renal Outcomes Trial: linagliptin 5 mg once daily vs placebo on top of standard of care
Assay type: in vivo
Details: for Hazard ratio for hospitalised heart failure: vs placebo
Protocol: The effect of linagliptin on cardiovascular risk in adult patients with type 2 diabetes mellitus and with increased CV risk evidenced by a history of established macrovascular or renal disease (e.g. as defined herein) was evaluated in a multi-center, multi-national, randomized, double-blind parallel group trial. The trial compared the risk of experiencing a major adverse cardiovascular event (MACE) between linagliptin and placebo when these were added to and used concomitantly with standard of care treatments for diabetes (HbA1c), cardiovascular risk factors and renal disease.
The primary endpoint in this trial was the time to first occurrence of three point (3P) MACE. A major adverse cardiac event was defined as a cardiovascular death or a nonfatal myocardial infarction (MI) or a nonfatal stroke. The statistical analysis plan tested for non-inferiority for the occurrence of (3P) MACE. […] The secondary endpoint was a renal composite, defined as renal death or sustained end stage renal disease or sustained decrease of 40% or more in eGFR.
Type 2 diabetes patient with insufficient glycemic control (naïve or pre-treated with any antidiabetic background medication, excluding treatment with GLP-1 receptor agonists, DPP-4inhibitors or SGLT-2 inhibitors if ≥consecutive 7 days, e.g. having HbA1c 6.5-10%), and high risk of cardiovascular events, e.g. defined by: • albuminuria (micro or macro) and previous macrovascular disease: e.g. defined according to Condition I as indicated below; • and/or • impaired renal function: e.g. as defined according to Condition II as indicated below;
Background and aims: People with type 2 diabetes (T2D) are at increased risk for hospitalization for heart failure (hHF), particularly in the setting of concomitant cardiovascular (CV) and/or kidney disease. […] Here we present analyses of HF outcomes with the DPP-4 inhibitor linagliptin (LINA) vs. placebo (PBO) from a Cardiovascular and Renal Outcomes Trial assessing cardiovascular safety and renal microvascular outcome in patients with type 2 diabetes at high vascular risk, a large CV outcomes trial that enrolled participants with T2D at high risk for hHF due to concomitant CV and/or chronic kidney disease. Materials and methods: People with T2D and concomitant CV and/or kidney disease were randomized to receive LINA 5 mg, or PBO once daily (1:1), on top of standard of care. All hHF, CV outcomes, and deaths were centrally adjudicated, with individual and composite HF-related outcomes analyses comparing LINA vs. placebo. Investigator-reported HF-related adverse events, whether or not confirmed by adjudication, were also analyzed. A Cox proportional hazards model adjusting for region and history of HF was used for analyses of first events. Recurrent hHF events were analyzed using a negative binomial model.
Methods: The present Cardiovascular and Renal Outcomes Trial randomized people with T2D and i) concomitant CV disease with UACR >30 mg/g or ii) prevalent CKD (i.e. GFR <45 ml/min/1.73m2 and/or UACR >200 mg/g) to receive the DPP-4 inhibitor linagliptin (5 mg) or placebo once daily in a double-blind fashion. The primary CV endpoint was 3P-MACE, with a key secondary kidney endpoint (adjudicated ESKD, renal death, or sustained ≥40% decrease in eGFR from baseline) and other renal outcomes (including albuminuria and eGFR slope) also assessed. Subgroups were assessed by baseline kidney function (eGFR ≥/<45 ml/min/1.73m2and eGFR ≥/<30, 45 or 60 ml/min/1.73m2).
Adults with type 2 diabetes, HbA1c 6.5-10.0% inclusive, and high CV risk were eligible for inclusion. […] Macrovascular disease eligibility criteria was based on documented and confirmed history of myocardial infarction, coronary artery disease, stroke, carotid artery disease, or peripheral artery disease. Participants with end-stage kidney disease (ESKD), defined as eGFR <15 or requiring maintenance dialysis, were excluded.

[1] = ACE inhibitors/angiotensin receptor blockers No
[2] = ACE inhibitors/angiotensin receptor blockers Yes
[3] = Albuminuria and previous macrovascular disease plus eGFR 45-75 with an UACR >200 mg/g
[4] = Albuminuria and previous macrovascular disease plus renal impairment (eGFR 15-<45 with any UACR)
[5] = Albuminuria and previous macrovascular disease without eGFR >45 mL/min/1.73 m2
[6] = Angiotensin-converting enzyme inhibitors No
[7] = Angiotensin-converting enzyme inhibitors Yes
[8] = Angiotensin-converting enzyme inhibitors/angiotensin receptor blockers No
[9] = Angiotensin-converting enzyme inhibitors/angiotensin receptor blockers Yes
[10] = Blood pressure control SBP <140 mmHg
[11] = Blood pressure control SBP <160 mmHg
[12] = Blood pressure control SBP ≥140 mmHg
[13] = Blood pressure control SBP ≥160 mmHg

SMILES: CC#CCn1c(N2CCC[C@@H](N)C2)nc2c1c(=O)n(Cc1nc(C)c3ccccc3n1)c(=O)n2C [Linagliptin, 1-[(4-methyl-quinazolin-2-yl)methyl]-3-methyl-7-(2-butyn-1-yl)-8-(3-(R)-amino-piperidin-1-yl)-xanthine]
- 3-point MACE: hazard ratio vs placebo [1]: 0.93
- 3-point MACE: patients with event/patients analyzed [1]: 89/634
- Key secondary kidney outcome: hazard ratio vs placebo [1]: 0.96
- Key secondary kidney outcome: patients with event/patients analyzed [1]: 62/634
- 3-point MACE: hazard ratio vs placebo [2]: 1.06
- 3-point MACE: patients with event/patients analyzed [2]: 345/2860
- Key secondary kidney outcome: hazard ratio vs placebo [2]: 1.07
- Key secondary kidney outcome: patients with event/patients analyzed [2]: 265/2860
- 3-point MACE: hazard ratio vs placebo (Age <65 years): 1.11
- 3-point MACE: patients with event/patients analyzed (Age <65 years): 154/1467
- Key secondary kidney outcome: hazard ratio vs placebo (Age <65 years): 1.05
- Key secondary kidney outcome: patients with event/patients analyzed (Age <65 years): 180/1467
- Patients with event/patients analysed, hospitalised heart failure (Age <65 years): 67/1467
- Hazard ratio for hospitalised heart failure (Age <65 years): 0.87
- 3-point MACE: hazard ratio vs placebo (Age ≥65 years): 0.97
- 3-point MACE: patients with event/patients analyzed (Age ≥65 years): 280/2027
- Key secondary kidney outcome: hazard ratio vs placebo (Age ≥65 years): 1.05
- Key secondary kidney outcome: patients with event/patients analyzed (Age ≥65 years): 147/2027
- Patients with event/patients analysed, hospitalised heart failure (Age ≥65 years): 142/2027
- Hazard ratio for hospitalised heart failure (Age ≥65 years): 0.91
- 3-point MACE: hazard ratio vs placebo [3]: 0.88
- 3-point MACE: patients with event/patients analyzed [3]: 119/647
- Key secondary kidney outcome: hazard ratio vs placebo [3]: 0.99
- Key secondary kidney outcome: patients with event/patients analyzed [3]: 74/647
- 3-point MACE: hazard ratio vs placebo [4]: 1.12
- 3-point MACE: patients with event/patients analyzed [4]: 195/1462
- Key secondary kidney outcome: hazard ratio vs placebo [4]: 1.01
- Key secondary kidney outcome: patients with event/patients analyzed [4]: 215/1462
- 3-point MACE: hazard ratio vs placebo [5]: 0.97
- Key secondary kidney outcome: hazard ratio vs placebo [5]: 1.22
- 3-point MACE: patients with event/patients analyzed (All patients): 434/3493
- Key secondary kidney outcome: patients with event/patients analyzed (All patients): 327/3493
- Patients with event/patients analysed, hospitalised heart failure (All patients): 209/3494
- Hazard ratio for hospitalised heart failure (All patients): 0.90
- Patients with event/patients analysed, hospitalised heart failure [6]: 132/1920
- Hazard ratio for hospitalised heart failure [6]: 1.02
- Patients with event/patients analysed, hospitalised heart failure [7]: 77/1574
- Hazard ratio for hospitalised heart failure [7]: 0.75
- Patients with event/patients analysed, hospitalised heart failure [8]: 48/634
- Hazard ratio for hospitalised heart failure [8]: 0.84
- Patients with event/patients analysed, hospitalised heart failure [9]: 161/2860
- Hazard ratio for hospitalised heart failure [9]: 0.92
- 3-point MACE: hazard ratio vs placebo (Antiplatelet drugs No): 1.10
- 3-point MACE: patients with event/patients analyzed (Antiplatelet drugs No): 125/1102
- Key secondary kidney outcome: hazard ratio vs placebo (Antiplatelet drugs No): 1.25
- Key secondary kidney outcome: patients with event/patients analyzed (Antiplatelet drugs No): 131/1102
- Patients with event/patients analysed, hospitalised heart failure (Antiplatelet drugs No): 61/1102
- Hazard ratio for hospitalised heart failure (Antiplatelet drugs No): 0.94
- 3-point MACE: hazard ratio vs placebo (Antiplatelet drugs Yes): 0.99
- 3-point MACE: patients with event/patients analyzed (Antiplatelet drugs Yes): 309/2392
- Key secondary kidney outcome: hazard ratio vs placebo (Antiplatelet drugs Yes): 0.94
- Key secondary kidney outcome: patients with event/patients analyzed (Antiplatelet drugs Yes): 196/2392
- Patients with event/patients analysed, hospitalised heart failure (Antiplatelet drugs Yes): 148/2392
- Hazard ratio for hospitalised heart failure (Antiplatelet drugs Yes): 0.88
- Patients with event/patients analysed, hospitalised heart failure (Atrial fibrillation No): 154/3175
- Hazard ratio for hospitalised heart failure (Atrial fibrillation No): 0.86
- Patients with event/patients analysed, hospitalised heart failure (Atrial fibrillation Yes): 55/319
- Hazard ratio for hospitalised heart failure (Atrial fibrillation Yes): 1.06
- 3-point MACE: hazard ratio vs placebo (Beta blockers No): 0.87
- 3-point MACE: patients with event/patients analyzed (Beta blockers No): 134/1414
- Key secondary kidney outcome: hazard ratio vs placebo (Beta blockers No): 1.14
- Key secondary kidney outcome: patients with event/patients analyzed (Beta blockers No): 161/1414
- Patients with event/patients analysed, hospitalised heart failure (Beta blockers No): 55/1414
- Hazard ratio for hospitalised heart failure (Beta blockers No): 0.95
- 3-point MACE: hazard ratio vs placebo (Beta blockers Yes): 1.11
- 3-point MACE: patients with event/patients analyzed (Beta blockers Yes): 300/2080
- Key secondary kidney outcome: hazard ratio vs placebo (Beta blockers Yes): 0.97
- Key secondary kidney outcome: patients with event/patients analyzed (Beta blockers Yes): 166/2080
- Patients with event/patients analysed, hospitalised heart failure (Beta blockers Yes): 154/2080
- Hazard ratio for hospitalised heart failure (Beta blockers Yes): 0.88
- Patients with event/patients analysed, hospitalised heart failure [10]: 84/1750
- Hazard ratio for hospitalised heart failure [10]: 0.68
- Patients with event/patients analysed, hospitalised heart failure [11]: 164/3017
- Hazard ratio for hospitalised heart failure [11]: 0.84
- Patients with event/patients analysed, hospitalised heart failure [12]: 125/1744
- Hazard ratio for hospitalised heart failure [12]: 1.15
- Patients with event/patients analysed, hospitalised heart failure [13]: 45/477
- Hazard ratio for hospitalised heart failure [13]: 1.24
- 3-point MACE: hazard ratio vs placebo (Body mass index <30 kg/m^2): 0.98
- 3-point MACE: patients with event/patients analyzed (Body mass index <30 kg/m^2): 191/1516
- Key secondary kidney outcome: hazard ratio vs placebo (Body mass index <30 kg/m^2): 1.14
- Key secondary kidney outcome: patients with event/patients analyzed (Body mass index <30 kg/m^2): 162/1516
- Patients with event/patients analysed, hospitalised heart failure (Body mass index <30 kg/m^2): 78/1516
- Hazard ratio for hospitalised heart failure (Body mass index <30 kg/m^2): 0.98
